Measurements reported in patent US20090022803A1, “Oral Formulations For Delivery of Catecholic Butanes Including Ndga Compounds” (priority 2005, published 2009).

Experiment: Stability of M4N formulations at room temperature (time to crystallized precipitation)
Type: physicochemical
Procedure: A 10 mL solution of M4N at a concentration of about 10 mg/mL in 40% BP-β-CD was made as follows. About 10 mL of the 40% HP-β-CD solution were added to a glass beaker containing a stir bar. The beaker was placed on a magnetic plate and the stir bar was set to stir at medium speed. About […] of M4N were slowly added to the 40% HP-β-CD in the center of the beaker with the aid of a spatula. The M4N/40% HP-β-CD mixture was stirred for 2 hr or until all M4N was uniformly suspended without any clumps being present. The M4N/40% HP-β-CD mixture was optionally heated at 80° C. for about 30 min. (or longer if a larger volume of solution was desired, for example, 1 hr at 80° C. for 100 mL of the M4N/HP-β-CD mixture), or longer as needed to ensure complete dissolution of M4N. […] The final M4N/40% HP-β-CD solution was stored at room temperature and was kept protected from light. This process may be scaled up or down to obtain the requisite volume or concentration of M4N. Formulations containing M4N in other cyclodextrin solutions may be similarly made, such as, for example, by substituting HP-β-CD in the process described above with other cyclodextrins.
A 100 mL solution of M4N at a concentration of about 25 mg/mL in PEG 300 was made as follows. About 100 mL of PEG 300 were added to a glass beaker containing a stir bar. The beaker was placed on a magnetic plate and the stir bar was set to stir at medium speed. About 2.5 g of M4N were slowly added to the PEG 300 in the center of the beaker with the aid of a spatula to prevent M4N from sticking to the beaker wall. The M4N/PEG 300 mixture was stirred for 24 hr or until all M4N had dissolved or was uniformly suspended without any clumps being present. The M4N/PEG 300 mixture was optionally heated at about 60° C. for about 30 min. (or longer if a larger volume of solution was desired, for example, 1 hr at 60° C. for 500 mL of the M4N/PEG 300 mixture), or longer as needed to ensure complete dissolution of M4N. […] If crystals formed, the M4N/PEG 300 solution could be heated again at 60° C. for about 1 hr, with stirring, on a hot magnetic plate until all M4N was dissolved back in solution. The final M4N/PEG 300 solution was stored at room temperature and was kept protected from light. This process may be scaled up or down to obtain the requisite volume or concentration of M4N. Formulations containing M4N in other PEGs may be similarly made, such as, for example, by substituting PEG 300 in the process described above with PEG 400 or PEG 400 monolaurate.
Formulations containing M4N in other water-insoluble lipids combined with non-ionic, ionic or amphipathic surfactants or water-soluble organic solvents may be similarly made, such as, for example, by substituting sesame oil in the process described above with corn oil, olive oil, soybean oil, peppermint oil, or mineral oil and substituting Tween® 20 with Tween® 80, TPGS, lecithin, PEG 300, PEG 400, PEG 400 monolaurate, glycerol, PVP, PG, or other solubilizing agents, and combinations thereof. Stability in reference to the clear liquid solutions herein refers to the time it takes to form crystallized precipitation in solution. A stable solution is one that is clear and free of particulates for an extended period of time.

COc1ccc(C[C@@H](C)[C@@H](C)Cc2ccc(OC)c(OC)c2)cc1OC [Formulation M4N, meso-1,4-bis(3,4-dimethoxyphenyl)-2,3-dimethylbutane]
Stability at Room Temperature (0.3% (v/v) Piperin, 49.8% (v/v) PEG 400, 49.8% (v/v) Tween ® 20, M4N 60 mg/mL, suspension): >9 days | Stability at Room Temperature (0.4% (v/v) Cinnamadehyde, 49.8%(v/v) PEG 400, 49.8% (v/v) Tween ® 20, M4N 60 mg/mL): >4 days | Stability at Room Temperature (0.4% (v/v) Cinnamaldehyde, 4.6% (v/v) Peppermint Oil, 47.5% (v/v) PEG 400, 47.5% (v/v) Tween ® 20, M4N 60 mg/mL): >2 days | Stability at Room Temperature (0.4% (v/v) Eugenol, 49.8% (v/v) Tween ® 20, 49.8% (v/v) PEG 400, M4N 60 mg/mL): >2 days | Stability at Room Temperature (3% (w/v)Glycerol Monostearate, 48.5% (v/v) PEG 400, 48.5% (v/v) Tween ® 20, M4N 60 mg/mL): >1 days | Stability at Room Temperature (5% (v/v) Peppermint Oil, 47.5% (v/v) Tween ® 20, 47.5% (v/v) PEG 400, M4N 60 mg/mL): >2 days | Stability at Room Temperature (10% TPGS (w/v), 50% PEG 400 (v/v), M4N 50 mg/ml, suspension): >7 days | Stability at Room Temperature (25%(w/v) Lecithin, 37.5% (v/v) PEG 400, 37.5% (v/v) Tween ® 20, M4N 60 mg/mL): >14 days | Stability at Room Temperature (47.5% (v/v) Tween ® 20, 47.5% (v/v) PEG 400, 2.5% (w/v) Beeswax 2.5% (w/v) PEG 3350, M4N 60 mg/mL): >4 days | Stability at Room Temperature (47.5% Tween ® 20 (v/v), 47.5% PEG 400 (v/v), 5% Beeswax (w/v), M4N 200 mg/g, waxy solid): >3 days | Stability at Room Temperature (50% Tween ® 20 (v/v), 50% PEG 400 (v/v), M4N 30 mg/ml): >3 days | Stability at Room Temperature (50% Tween ® 20 (v/v), 50% PEG 400 (v/v), M4N 40 mg/ml): >3 days | Stability at Room Temperature (50% Tween ® 20 (v/v), 50% PEG 400 (v/v), M4N 50 mg/ml): >3 days | Stability at Room Temperature (50% Tween ® 20 (v/v), 50% PEG 400 (v/v), M4N 60 mg/ml): >3 days | Stability at Room Temperature (50.3% (v/v) Tween ® 20, 44.6% (v/v) PEG 400, 2.4% (w/v) Beeswax, 2.4% (w/v) PEG 3350, 0.3% (w/v) Naringenin, M4N 60 mg/mL): >4 days | Stability at Room Temperature (Glycerol Monoleate 100% (w/v), M4N 0.10 mg/ml, remains in suspension, can be mixed back together): for up to 10 days | Stability at Room Temperature (Glycerol Monoleate 100% (w/v), M4N 0.25 mg/ml, remains in suspension, can be mixed back together): for up to 10 days | Stability at Room Temperature (Glycerol Monoleate 100% (w/v), M4N 1.00 mg/ml, remains in suspension, can be mixed back together): for up to 10 days | Stability at Room Temperature (Glycerol Monoleate 100% (w/v), M4N 5.0 mg/ml, remains in suspension, can be mixed back together): for up to 10 days | Stability at Room Temperature (Glycerol Monoleate 100% (w/v), M4N 10.0 mg/ml, remains in suspension, can be mixed back together): for up to 10 days | Stability at Room Temperature (Glycerol Monoleate 100% (w/v), M4N 12.0 mg/ml, remains in suspension, can be mixed back together): for up to 10 days | Stability at Room Temperature (Glycerol Monoleate 100% (w/v), M4N 15.0 mg/ml, remains in suspension, can be mixed back together): for up to 10 days | Stability at Room Temperature (Glycerol Monoleate 100% (w/v), M4N 17.5 mg/ml, remains in suspension, can be mixed back together): for up to 10 days | Stability at Room Temperature (Glycerol Monoleate 100% (w/v), M4N 20.0 mg/ml, remains in suspension, can be mixed back together): for up to 10 days | Stability at Room Temperature (Glycerol Monoleate 100% (w/v), M4N 25.0 mg/ml, remains in suspension, can be mixed back together): for up to 10 days | Stability at Room Temperature (Glycerol Monoleate 100% (w/v), M4N 30.0 mg/ml, remains in suspension, can be mixed back together): for up to 10 days | Stability at Room Temperature (Glycerol Monoleate 100% (w/v), M4N 40.0 mg/ml, remains in suspension, can be mixed back together): for up to 10 days | Stability at Room Temperature (Glycerol Monoleate 100% (w/v), M4N 50.0 mg/ml, remains in suspension, can be mixed back together): for up to 10 days | Stability at Room Temperature (Glycerol Monoleate 100% (w/v), M4N 60.0 mg/ml, remains in suspension, can be mixed back together): for up to 10 days | Stability at Room Temperature (Glycerol Monoleate 100% (w/v), M4N 65.0 mg/ml, remains in suspension, can be mixed back together): for up to 10 days | Stability at Room Temperature (Glycerol Monoleate 100% (w/v), M4N 70.0 mg/ml, remains in suspension, can be mixed back together): for up to 10 days | Stability at Room Temperature (Glycerol Monoleate 100% (w/v), M4N 80.0 mg/ml, remains in suspension, can be mixed back together): for up to 10 days | Stability at Room Temperature (Glycerol Monoleate 100% (w/v), M4N 100.0 mg/ml, remains in suspension, can be mixed back together): for up to 10 days | Stability at Room Temperature (Glycerol Monoleate 100% (w/v), M4N 200.0 mg/ml, remains in suspension, can be mixed back together): for up to 10 days | Stability at Room Temperature (Glycerol Monoleate 100% (w/v), M4N 300.0 mg/ml, remains in suspension, can be mixed back together): for up to 10 days | Stability at Room Temperature (Labrafil ® 100%, M4N 60 mg/mL): >4 days | Stability at Room Temperature (Labrasol ® 100%, M4N 50 mg/mL): >4 days | Stability at Room Temperature (Labrasol ® 100%, M4N 60 mg/mL): >4 days | Stability at Room Temperature (Labrasol ® 100%, M4N 70 mg/mL): >4 days | Stability at Room Temperature (Labrasol ® 100%, M4N 80 mg/mL): >4 days | Stability at Room Temperature (M4N 1 mg/mL in 20% HP-β-CD): >7 days | Stability at Room Temperature (M4N 1 mg/mL in 30% HP-β-CD): >7 days | Stability at Room Temperature (M4N 1 mg/mL in 50% HP-β-CD): >7 days | Stability at Room Temperature (M4N 1 mg/mL in 50% HP-β-CD, 1.25% PVP (w/v)): <3 days | Stability Time at Room Temperature (M4N 1 mg/mL in Peppermint Oil): >3 days | stable at room temperature (M4N 1 mg/mL in Tween® 20): more than 7 days | stable at room temperature (M4N 1 mg/mL in Tween® 80): more than 3 days
